Data set [1] deals with T1, Striatal Tyrosine Hydroxylase (Rattus norvegicus, UniProt P04177).
T1 construct: 10,000 g supernatant of Triton X-100 homogenate of rat corpus striatum
The data set can be described thus: Kms of striatal tyrosine hydroxylase after in vivo pretreatment. To be noted: for Km: striatal homogenate of treated rats. The data set is classed as biochemical.
Method: Corpora striata were homogenized in 10 volumes of 0.05 M Tris-acetate buffer (pH 6.0), containing 0.2 percent Triton X-100 (Harleco, Philadelphia, PA). The homogenates were centrifuged for 10 min. at 10,000 g, and the supernatant fluids were collected for assay (Coye, 1972). The assay medium contained, in a total volume of 110 μl: 50 μl of a supernatant fluid; 65 nmoles of DMPH4 (2-amino-4-hydroxy-6,7-dimethyl-5,6,7,8-tetrahydropteridine hydrochloride [synthetic cofactor obtained from Calbiochem, San Diego, CA]); 29 nanomoles of pyridoxal phosphate; 4 nanomoles of 2-mercaptoethanol; 240 units of catalase; 0.01 millimoles phosphate buffer (pH 6.2); and 10 μl of aromatic L-amino acid decarboxylase prepared from hog kidneys (Coyle, 1972). Samples were preincubated for 2 min. at 27° C.
The assay was stopped by the addition of 0.5 ml of 10 percent trichloroacetic acid. The acidified medium was then shaken for 2 hours to recover the ^14 CO2, which was trapped by folded filter paper strips placed in 0.2 ml of NCS tissue solubilizer (Amersham/Searle, Arlington Heights, IL). The strips were then transferred to scintillation vials containing 10 ml of Aquasol (New England Nuclear, Boston, MA), and their radioactivity was counted.

The subject of another data set is brain dopamine release. Put plainly: Accumulation of HVA in corpora striata of rats given haloperidol or probenecid after tyrosine (FIG. 2). Conditions: for striatal HVA concentration: tyrosine 100 mg/kg or diluent, 20 min later haloperidol 2 mg/kg or probenecid 200 mg/kg i.p., sacrificed 70 min after second injection, corpora striata. The protocol: Male, 150 to 200 g Sprague-Dawley rats (Charles River Breeding Laboratories, Wilmington, MA) were exposed to light (Vita-Lite, Duro-Test Co., North Bergen, N.J.) between 9 AM and 9 PM daily and allowed access to Big Red Rat Chow (Charles River Breeding Laboratories) and water ad limitum. Drugs were injected intraperitoneally at a volume of 2 ml/kg body weight. […] Control animals received the appropriate diluents. […] Brains were quickly removed, and the striata were dissected out (Glowinski and Iverson, 1966), frozen on dry ice, and subsequently assayed for HVA. Tyrosine was assayed in homogenates of the remaining brain (Waalkes and Udenfriend, 1957).

Data set [2] concerns Norepinephrine synthesis and turnover in brain neurons. Put plainly: Accumulation of brain MOPEG-SO4 after probenecid administration and pretreatment with tyrosine. To be noted: for Brain MOPEG-SO4 Level / Brain Tyrosine Level: killed 60 min after second injection, whole brain, mean ± SEM; for effect on brain MOPEG-SO4: substance given alone, versus diluent; for effect on brain tyrosine levels: tyrosine 100 mg/kg i.p., probenecid 400 mg/kg, two-way analysis of variance. The text has this:
(§1) Male Sprague-Dawley rats (Charles River Breeding Laboratories, Wilmington, MA) weighing 150 g were housed in hanging cages (6-8 per cage), given ad libitum access to tap water and a 26% protein diet (Charles River Rat-Mouse-Hamster Maintenance Formula 24RF), and maintained under light (300 microwatts/cm^2; Vita-Lite, Duro-Test Corp., North Bergen, N.J.) between 8 AM and 8 PM daily. Rats used for diet experiments were fasted overnight and then allowed to consume the experimental diet starting at 10 AM. Diets of different compositions were prepared in agar gel ([…] of water) as described by Gibson et al., Biochem. Pharmacol., 26, 1137-1142 (1977). All amino acids and drugs were injected intraperitoneally.
(§2) Norepinephrine synthesis and turnover in brain neurons were estimated by measuring the rate of accumulation of MOPEG-SO4 after probenecid administration or exposure to a cold environment. […] An aliquot of each homogenate (in 0.15 M ZnSO4) was first assayed for tyrosine by the method of Waalkes and Undenfriend, J. Lab. Clin. Med., 50, 733-736 (1957). An equal volume of 0.15 M barium hydroxide was then added to the remaining homogenate, which was rehomogenized (Polytron, Brinkman Instruments, N.Y.), centrifuged and assayed for MOPEG-SO4 by the method of Meek and Neff above.
Tyrosine (Grand Island Biological Co., Long Island, N.Y.) and probenecid (Sigma Chemical Co., St. Louis, MO), which are poorly soluble in water, were dissolved in dilute NaOH; the solutions were then buffered to pH 7.4 with hydrochloric acid and brought to a known volume with saline. This yielded a fine suspension that was suitable for injection.
In each of 3 experiments, groups of 4-6 rats were injected with either a
dose of tyrosine (100 mg/kg, i.p.) known to accelerate brain dopa
synthesis or its diluent and, 30 min. later, with probenecid (400 mg/kg,
[…].) or its diluent. Animals were killed 60 min. after the second
injection, and their whole brains were analyzed for tyrosine and […]

The next data set relates to Serum Prolactin. The data set can be described thus: Serum prolactin by radioimmunoassay in reserpine-treated rats. The data set is classed as in vivo, rat. The protocol: Groups of 4 male rats received reserpine (2.5 mg/kg/day, divided into two equal doses each day) intraperitoneally for four days. On day 5, in the morning, no reserpine was administered, but instead half of the animals received tyrosine (200 mg/kg) or the vehicle (saline), and were killed two hours later. Sera were collected and assayed by radioimmunoassay for prolactin.

Data set [3] relates to Norepinephrine synthesis and turnover in brain neurons. Put plainly: Brain tyrosine and MOPEG-SO4 in rats exposed to cold (4° C.) after amino acid injection (FIG. 1).
Excerpt: as §1, §2
In experiments on stress produced by exposure to cold, animals received the more soluble ethyl-ester form of tyrosine (J. T. Baker, Phillipsburg, N.J.), instead of tyrosine itself, to raise brain tyrosine levels. Data were analyzed by one-way or two-way analysis of variance.
Placing the rats in a cold environment (4° C.) increases norepinephrine turnover; this accelerates the formation of both norepinephrine itself and its metabolite, MOPEG-SO4, in brain neurons. The rats were exposed to cold to determine whether treatments that changed brain tyrosine levels could influence the rate at which the brain accumulates MOPEG-SO4 in rats exposed to cold stress and not given probenecid (FIG. 1).
The relationship shown in FIG. 1 was obtained as follows: Groups of rats were injected intraperitoneally with valine (200 mg/kg), an amino acid that competes with tyrosine for uptake into the brain (8), or with tyrosine (125 mg/kg of the ethyl ester) or saline; 30 min. later they were placed in single cages in a cold (4° C.) environment. After 1 hr., all animals were killed, and their whole brains were analyzed for tyrosine and MOPEG-SO4. Control animals were injected with saline and left at room temperature (22° C.), also in a single cages, for 90 min. Each point represents the tyrosine and MOPEG-SO4 levels present in a single brain. Data were pooled from several experiments. […] In FIG. 1, the symbols are as follows: closed circles, animals pretreated with valine; open circles, animals pretreated with saline; closed squares, animals pretreated with tyrosine.

Where [4] appears, read: pretreatment (tyrosine 100 mg/kg i.p. or diluent), 30 min later probenecid 400 mg/kg.
Setting [5] is: tyrosine 125 mg/kg of the ethyl ester i.p., cold (4° C.) 1 hr.
The mark [6] stands for this setting: pretreatment tyrosine 100 mg/kg i.p., 30 min later diluent.

Several values for one entry are separate records, joined by “and”; a condition that tells them apart may be missing. Equal entries are not always repeated. Where two headings read alike, the source gives them in different places.

For orientation: Km means the concentration of substrate that gives half-maximal velocity.

T1 sequence (P04177 whole entry): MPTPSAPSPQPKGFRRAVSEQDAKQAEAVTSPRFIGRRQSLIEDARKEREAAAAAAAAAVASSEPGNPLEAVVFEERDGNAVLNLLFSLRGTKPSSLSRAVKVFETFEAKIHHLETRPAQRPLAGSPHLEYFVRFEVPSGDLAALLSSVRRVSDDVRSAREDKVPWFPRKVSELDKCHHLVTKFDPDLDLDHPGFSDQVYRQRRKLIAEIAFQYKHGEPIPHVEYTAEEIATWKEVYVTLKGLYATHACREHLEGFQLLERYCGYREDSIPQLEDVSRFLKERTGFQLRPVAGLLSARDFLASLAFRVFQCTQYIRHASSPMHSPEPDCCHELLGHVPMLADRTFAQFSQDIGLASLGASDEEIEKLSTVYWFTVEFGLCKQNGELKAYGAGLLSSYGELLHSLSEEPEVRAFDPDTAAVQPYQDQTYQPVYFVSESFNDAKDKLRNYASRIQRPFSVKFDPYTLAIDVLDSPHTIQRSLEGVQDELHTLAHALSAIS

As to `O=C(CCCN1CCC(O)(c2ccc(Cl)cc2)CC1)c1ccc(F)cc1` [Haloperidol, haloperidol], the Michaelis constant (Km) in data set [1] (DMPH4 concentrations 0.1 to 0.5 mM, read-out: Km for DMPH4) stood at 130 ± 10 µM; in data set [1] (tyrosine concentrations 0.125-1.0 mM, read-out: Km for tyrosine), 48.1 ± 1.9 µM. Further, in the data set with brain dopamine release, the “striatal HVA concentration” value came to 2.00 ± 0.10 µg/g.
For `CCCN(CCC)S(=O)(=O)c1ccc(C(=O)O)cc1` [Probenecid, probenecid, reference compound], the “striatal HVA concentration” value in the data set on brain dopamine release came out at 1.30 ± 0.10 µg/g. For the same compound, the “Brain MOPEG-SO4 Level” value in data set [2] (setting [4]) was 175 ng/g and 175 ± 6 ng/g. In data set [2], the “effect on brain MOPEG-SO4” value is given as “significantly raised” and the “effect on brain tyrosine levels” value is reported as “failed to modify”.
As to `N[C@@H](Cc1ccc(O)cc1)C(=O)O` [Tyrosine, tyrosine], in the data set with Serum Prolactin (male rats, reserpine […] i.p. for four days, day 5 tyrosine 200 mg/kg, killed two hours later, mean ± standard error), the “Serum Prolactin” value worked out at 44 ± 2 ng/mL. In addition, in the data set with Serum Prolactin (reserpine-pretreated rats, tyrosine 200 mg/kg), the “effect on serum prolactin levels” value was “lowers serum prolactin levels”. Further, the “effect of prior administration on the Kms of tyrosine hydroxylase for tyrosine or DMPH4 in vitro” value in data set [1] (tyrosine 100 mg/kg in vivo) is “failed to affect”. In addition, in the data set with brain dopamine release (tyrosine 100 mg/kg 20 min before haloperidol 2 mg/kg), the “potentiation of the accumulation of HVA in striata of haloperidol-treated rats” value is listed as 59%. Besides, in the data set on brain dopamine release (tyrosine 100 mg/kg 20 min before probenecid 200 mg/kg), the “effect on HVA levels in animals given probenecid” value is recorded as “failed”. In data set [3] (i.p. injection (tyrosine 125 mg/kg of the ethyl ester; valine 200 mg/kg) 30 min before 1 hr in cold (4° C.), whole brain), this compound had a brain tyrosine levels of 24.6 µg/g. Also, the “brain MOPEG-SO4 levels” value in data set [3] (tyrosine 125 mg/kg of the ethyl ester i.p. 30 min before 1 hr in cold (4° C.), whole brain) is on record as 193 ng/g. Besides, in data set [3] (setting [5]), the “rise in brain MOPEG-SO4 versus saline-injected animals” value is 70% and the “rise in brain tyrosine levels versus saline-injected animals” value is “about 80%”. Moreover, in data set [2] (setting [4]), the “Brain MOPEG-SO4 Level” value was 203 ng/g and 203 ± 8 ng/g; the “Brain Tyrosine Level” value came out at 24.7 ± 1.3 µg/g. Besides, in data set [2] (setting [6]), the “Brain MOPEG-SO4 Level” value is 127 ± 2 ng/g and the “Brain Tyrosine Level” value is 23.3 ± 1.5 µg/g. In data set [2], the “effect on brain MOPEG-SO4” value is on record as “no effect” and the “effect on brain tyrosine levels” value is “significantly raised”. Besides, the “effect of tyrosine pretreatment on the probenecid-induced rise in MOPEG-SO4” value in data set [2] (tyrosine 100 mg/kg i.p. 30 min before probenecid 400 mg/kg) was “significantly enhanced”.
With `CC(C)[C@H](N)C(=O)O` [valine, reference compound], the “effect on brain tyrosine or MOPEG-SO4 levels” value in data set [3] (valine 200 mg/kg i.p., cold (4° C.) 1 hr) was “failed, in this study, to cause significant alterations”.

The values are drawn from patent publication US4224343A, “Process and composition for decreasing blood serum prolactin levels” (Massachusetts Institute of Technology, priority 1979, dated 1980).
